In brackets after ≈: the same amount, converted by molar mass.
Experiments:
Type in all cases: functional, cell-based
CCRF-CEM [1] = test: In vitro antiviral activity expressed as IC50 against HIV (CEM cells); 11-25; conditions: Homo sapiens
Vero = test: In vitro antiviral activity expressed as IC50 against herpes simplex virus type 2 (HSV-2) in vero cells; conditions: Chlorocebus sabaeus
CCRF-CEM [2] = test: In vitro antiviral activity expressed as IC50 against HIV (CEM cells); conditions: Homo sapiens

Row | IC50 (CCRF-CEM [1]) [µg/mL] | IC50 (CCRF-CEM [2]) [µg/mL] | SMILES | IC50 (Vero) [µg/mL]
1 | 11 (≈ 36.3 µM) | – | CC(Cn1cnc2c(=O)[nH]c(N)nc21)OCP(=O)(O)O (stereo not drawn) | –
2 | – | 3 (≈ 9.89 µM) | CC(COCP(=O)(O)O)n1cnc2c(O)nc(N)nc21 (stereo not drawn) | –
3 | – | > 100 | Nc1nc(O)c2ncn([C@H]3CC[C@@H](OCP(=O)(O)O)C3)c2n1 | > 100
4 | – | 20 (≈ 60.7 µM) | Nc1nc(O)c2ncn([C@H]3CCC[C@H]3OCP(=O)(O)O)c2n1 | > 100

Further lines, the compound ahead of its results:

Row | SMILES | IC50 (CCRF-CEM [1]) [µg/mL] | IC50 (CCRF-CEM [2]) [µg/mL] | IC50 (Vero) [µg/mL]
5 | Nc1nc(O)c2ncn([C@H]3CCC[C@@H]3OCP(=O)(O)O)c2n1 | – | > 100 | > 100
6 | Nc1nc(O)c2ncn([C@H]3C=C[C@@H](OCP(=O)(O)O)C3)c2n1 | – | 66 (≈ 202 µM) | > 100
7 | Nc1nc(O)c2ncn([C@@H]3C=C[C@H](OCP(=O)(O)O)C3)c2n1 | – | 26 (≈ 79.5 µM) | –
8 | Nc1nc2c(ncn2CCOCP(=O)(O)O)c(=O)[nH]1 [GS-438] | – | 0.2 (≈ 0.692 µM) | 0.7 (≈ 2.42 µM)

— ChEMBL document CHEMBL1126432, “Synthesis and biological activity of carbocyclic derivatives of the potent antiviral agent 9-[2-(phosphonomethoxy)ethyl]guanine (PMEG)” (Bioorg Med Chem Lett, 1992)
